Assay results taken from ChEMBL document CHEMBL5038615, “Discovery of a cinnamyl piperidine derivative as new neddylation inhibitor for gastric cancer treatment” (Eur J Med Chem, 2021).
Calls of active or inactive are those of the source. The rule behind the calls is not given here.

Experiments:
[1] = tested on: HepG2; experiment: Antiproliferative activity against human HepG2 cells assessed as inhibition of cell proliferation measured after 72 hrs by MTT assay; assay type: functional, cell-based; details: HepG2, 72 h
[2] = Cytotoxicity against human GES1 cells assessed as inhibition of cell proliferation measured after 72 hrs by MTT assay; assay type: toxicity, cell-based
[3] = tested on: MGC-803; experiment: Cell cycle arrest in human MGC-803 cells assessed as accumulation of cells at G0/G1 phase at 5 uM measured after 24 hrs by Flowcytometry assay (reference value: 46.01%); assay type: functional
[4] = tested on: MGC-803; experiment: Cell cycle arrest in human MGC-803 cells assessed as accumulation of cells at S phase at 5 uM measured after 24 hrs by Flowcytometry assay (reference value: 36.51%); assay type: functional
[5] = tested on: MGC-803; experiment: Cell cycle arrest in human MGC-803 cells assessed as accumulation of cells at G2/M phase at 7.5 uM measured after 24 hrs by Flowcytometry assay (reference value: 13.71%); assay type: functional
[6] = tested on: HGC-27; experiment: Inhibition of cell migration in human HGC-27 cells at 1.5 to 6 uM measured after 24 to 48 hrs by wound healing assay based inverted microscopic analysis; assay type: functional; details: dose 1.5-6 µM, time 24-48 hrs
[7] = tested on: HGC-27; experiment: Inhibition of cell migration in human HGC-27 cells at 5 uM measured after 48 hrs by wound healing assay based inverted microscopic analysis; assay type: functional
[8] = tested on: MGC-803; experiment: Induction of apoptosis in human MGC-803 cells assessed as late apoptotic cells at 2.5 uM measured after 24 hrs by AnnexinV/FITC staining based flow cytometry method (reference value: 2%); assay type: functional
[9] = tested on: MGC-803; experiment: Induction of apoptosis in human MGC-803 cells assessed as viable cells at 5 uM measured after 24 hrs by AnnexinV/FITC staining based flow cytometry method (reference value: 94.8%); assay type: functional; details: read-out: Activity
[10] = tested on: MGC-803; experiment: Induction of apoptosis in human MGC-803 cells assessed as late apoptotic cells at 7.5 uM measured after 24 hrs by AnnexinV/FITC staining based flow cytometry method (reference value: 2%); assay type: functional
[11] = tested on: MGC-803; experiment: Induction of apoptosis in human MGC-803 cells assessed as early apoptotic cells at 5 uM measured after 48 hrs by AnnexinV/FITC staining based flow cytometry method (reference value: 1.5%); assay type: functional
[12] = tested on: MGC-803; experiment: Induction of apoptosis in human MGC-803 cells assessed as necrotic cells at 5 uM measured after 48 hrs by AnnexinV/FITC staining based flow cytometry method (reference value: 0.2%); assay type: functional
[13] = tested on: MGC-803; experiment: Induction of apoptosis in human MGC-803 cells assessed as necrotic cells at 7.5 uM measured after 48 hrs by AnnexinV/FITC staining based flow cytometry method (reference value: 0.2%); assay type: functional
[14] = tested on: HGC-27; experiment: Induction of apoptosis in human HGC-27 cells assessed as viable cells at 3 uM measured after 24 hrs by AnnexinV/FITC staining based flow cytometry method (reference value: 95.7%); assay type: functional; details: read-out: Activity
[15] = tested on: HGC-27; experiment: Induction of apoptosis in human HGC-27 cells assessed as early apoptotic cells at 3 uM measured after 24 hrs by AnnexinV/FITC staining based flow cytometry method (reference value: 0.7%); assay type: functional
[16] = tested on: HGC-27; experiment: Induction of apoptosis in human HGC-27 cells assessed as early apoptotic cells at 6 uM measured after 24 hrs by AnnexinV/FITC staining based flow cytometry method (reference value: 0.7%); assay type: functional
[17] = tested on: HGC-27; experiment: Induction of apoptosis in human HGC-27 cells assessed as late apoptotic cells at 6 uM measured after 24 hrs by AnnexinV/FITC staining based flow cytometry method (reference value: 2.4%); assay type: functional
[18] = tested on: HGC-27; experiment: Induction of apoptosis in human HGC-27 cells assessed as early apoptotic cells at 9 uM measured after 24 hrs by AnnexinV/FITC staining based flow cytometry method (reference value: 0.7%); assay type: functional
[19] = tested on: HGC-27; experiment: Induction of apoptosis in human HGC-27 cells assessed as late apoptotic cells at 9 uM measured after 24 hrs by AnnexinV/FITC staining based flow cytometry method (reference value: 2.4%); assay type: functional
[20] = tested on: HGC-27; experiment: Induction of apoptosis in human HGC-27 cells assessed as necrotic cells at 3 uM measured after 48 hrs by AnnexinV/FITC staining based flow cytometry method (reference value: 0.1%); assay type: functional
[21] = tested on: HGC-27; experiment: Induction of apoptosis in human HGC-27 cells assessed as viable cells at 6 uM measured after 48 hrs by AnnexinV/FITC staining based flow cytometry method (reference value: 93.18%); assay type: functional; details: read-out: Activity
[22] = tested on: HGC-27; experiment: Induction of apoptosis in human HGC-27 cells assessed as early apoptotic cells at 6 uM measured after 48 hrs by AnnexinV/FITC staining based flow cytometry method (reference value: 5.8%); assay type: functional
[23] = tested on: HGC-27; experiment: Induction of apoptosis in human HGC-27 cells assessed as late apoptotic cells at 9 uM measured after 48 hrs by AnnexinV/FITC staining based flow cytometry method (reference value: 1%); assay type: functional
[24] = tested on: MGC-803; experiment: Induction of apoptosis in human MGC-803 cells assessed as upregulation of Bid at 2.5 to 7.5 uM measured after 24 hrs by Western blot assay; assay type: functional, cell-based; details: dose 2.5-7.5 µM
[25] = tested on: MGC-803; experiment: Induction of apoptosis in human MGC-803 cells assessed as up-regulation of Nrf2 expression at 2.5 to 7.5 uM measured after 24 hrs by Western blot assay; assay type: functional, cell-based; details: dose 2.5-7.5 µM
[26] = tested on: MGC-803; experiment: Induction of apoptosis in human MGC-803 cells assessed as up-regulation of Nrf2 expression in cytoplasm at 2.5 to 7.5 uM measured after 24 hrs by Western blot assay; assay type: functional, cell-based; details: dose 2.5-7.5 µM
[27] = tested on: HGC-27; experiment: Induction of apoptosis in human HGC-27 cells assessed as downregulation of Bcl-2 at 3 to 9 uM measured after 24 hrs by Western blot assay; assay type: functional, cell-based; details: dose 3-9 µM
[28] = tested on: MGC-803; experiment: Induction of apoptosis in human MGC-803 cells assessed as ROS levels at 5 uM measured after 24 hrs by DCFH-DA staining based flow cytometry assay (reference value: 3.3%); assay type: functional
[29] = tested on: HGC-27; experiment: Induction of apoptosis in human HGC-27 cells assessed as late apoptotic cells at 3 uM measured after 24 hrs by AnnexinV/FITC staining based flow cytometry method (reference value: 2.4%); assay type: functional

With `CCCCCc1ccc(NC(=O)C2CCN(C/C=C/c3ccccc3)CC2)cc1` the IC50 [1] was 2.89 µM, the IC50 at 72 h [2] was 8.7 µM and the Activity [3] was 44.87%. The Activity [4] was 33.81%, the Activity [5] was 25.94% and the inhibition [6] was “Dose-Dependent Effect”. It also gave an inhibition at 5 µM [7] of 60%, an Activity [8] of 3.6% and a viability at 5 µM [9] of 80.1%. The Activity [10] was 82.4%, the Activity [11] was 9.8% and the Activity [12] was 0.8%. It also gave an Activity [13] of 0%, a viability at 3 µM [14] of 87.5% and an Activity [15] of 7.5%. For the same compound, the Activity [16] was 23.1%, the Activity [17] was 51.3% and the Activity [18] was 2.3%. The Activity [19] was 74%, the Activity [20] was 2.4% and the viability at 6 µM [21] was 45.8%. For the same compound, the Activity [22] was 32.2%, the Activity [23] was 99.5% and the Activity [24] was “Dose-Dependent Effect”. The Activity [25] was “Active”, the Activity [26] was “Active” and the Activity [27] was “Dose-Dependent Effect”. The Activity [28] was 5.4% and the Activity [29] was 4.6%.
